Test [1] has as its system breast cancer and benign tumor tissues (clinical mammary gland specimen). In words: Two-color imaging with HMRef-α-D-Man and GGT probe in combination (FIG. 9). Set-up: species or system human. The settings on record: 50 μM each probe; 30 minutes after administration of both probes. How it is done: Two-color imaging was performed under the following conditions using the glycosidase-reactive fluorescent probe 5 (HMRef-α-D-Man) (concentration: 50 μM) and a GGT probe gGlu-2-OMeSiR600 (concentration: 50 μM) in combination.
200 μL of a PBS solution of the fluorescent probes at the above concentrations was added to each well in which a clinical mammary gland specimen was placed, and fluorescence images at 1, 3, 5, 10, 20, and 30 minutes were acquired at 540 nm and 640 nm using the Maestro in vivo imaging system (PerkinElmer Inc.). Each fluorescence intensity value was quantified and compared by taking Regions Of Interest (ROIs) on Maestro software. For the glycosidase-reactive fluorescent probe 5, Ex/Em=465-30 nm/515 nm long-pass was used as the filter setting. For the GGT probe, Ex/Em=570-40 nm/610 nm long-pass was used.
The exposure time (in milliseconds) of the fluorescence image is indicated at the bottom of each image.

Test [2] concerns intact glycosidase activities in normal breast, IDC (breast cancer), and FA (benign tumor) tissues. Kind of test: Screening of glycosidase-reactive fluorescent probes for detecting breast cancer and benignancy (fluorescence increase in clinical mammary gland specimens). The settings on record: probe 50 μM in PBS, increase from 1 minute to 30 minutes after addition, 540 nm. The arrangement: species or system human. How it is done: Using the 12 types of glycosidase-reactive fluorescent probes synthesized above (refer to FIG. 1), screening for the detection of breast cancer and benignancy was performed in the following procedure.
200 μL of a PBS solution of each fluorescent probe at a concentration of 50 μM was added to each well in which a clinical mammary gland specimen was placed, and fluorescence images at 1, 3, 5, 10, 20, and 30 minutes were acquired at 540 nm using a Maestro in vivo imaging system (PerkinElmer Inc.). Each fluorescence intensity value was quantified and compared by taking Regions Of Interest (ROIs) on Maestro software. Ex/Em=465−30 nm/515 nm long-pass was used as the filter setting.
The increase in fluorescence indicates increase after the lapse of 1 minute to 30 minutes since the addition of the fluorescent probe. Each dot represents, from left to right, increase in fluorescence in normal breast, IDC, DCIS, and FA tissues.

The values that follow come from US20220144879A1, “FLUORESCENT PROBE FOR DETECTING CANCER” (The University of Tokyo, priority 2019, published 2022).

`COc1ccccc1C1=C2C=CC(=N)C=C2[Si](C)(C)c2cc(NC(=O)CC[C@H](N)C(=O)O)ccc21` [gGlu-2OME-SiR600, gGlu-2-OMeSiR600]: in test [1], the “red fluorescence (640 nm)” value was “emitted red fluorescence in both breast cancer (malignant tumor) and the benign tumor”.

With `COc1ccccc1C1=C2C=CC(=N)C=C2[Si](C)(C)c2cc(NC(=O)CC[C@H](N)C(=O)O)ccc21` [compound 7], the increase in fluorescence result in test [2] is “increase in fluorescence in both the breast cancer and FA (benign tumor) tissues”.
